Laboratory results published in patent US20250367209A1 (SOUTHERN RESEARCH INSTITUTE, priority 2022, published 2025).
“Also recorded” adds a separate entry of the source.

Tests used:
Tau-SrcSH3 interaction = Tau-SrcSH3 interaction (Homo sapiens (Human), UniProt P10636); experiment: Tau-Flag PLA, Tau-SrcSH3; type: cell-based; conditions: 15 μM, HEK-293 cells
Method: Tau-Flag PLA for Tau-SH3 interactions: To clone the SH3 constructs, a C-terminal Flag tag was added to the Tau construct using PCR, then the Tau sequence was replaced with the desired SH3 domain using In-Fusion HD cloning kit (Takara Bio). Next, an N-terminal GST tag was added to help expression using In-Fusion, resulting in GST-SH3-Flag plasmids. As a negative control, restriction enzymes were used to remove the FynSH3 from the FynSH3 construct, resulting in GST-Flag. All sequences were confirmed with Sanger sequencing, and expression in HEK-293 cells was verified by western blot and immunocytochemistry. Plating and experimental timeline was the same as above. Cells were transfected with 125 ng of Tau-mKate2 and 500 ng SH3 plasmid with 1.5 μL Fugene. compound no. 69 was applied to final concentration 15 μM. For Tau-SH3 PLA, we used Dako Tau (1:1000) and Flag (1:1000) primary antibodies.

Fyn kinase = Fyn kinase (Homo sapiens (Human), UniProt P06241); experiment: Custom panel for Fyn kinase activity; type: biochemical; conditions: 3 μM
Fyn kinase, sequence (P06241 whole entry): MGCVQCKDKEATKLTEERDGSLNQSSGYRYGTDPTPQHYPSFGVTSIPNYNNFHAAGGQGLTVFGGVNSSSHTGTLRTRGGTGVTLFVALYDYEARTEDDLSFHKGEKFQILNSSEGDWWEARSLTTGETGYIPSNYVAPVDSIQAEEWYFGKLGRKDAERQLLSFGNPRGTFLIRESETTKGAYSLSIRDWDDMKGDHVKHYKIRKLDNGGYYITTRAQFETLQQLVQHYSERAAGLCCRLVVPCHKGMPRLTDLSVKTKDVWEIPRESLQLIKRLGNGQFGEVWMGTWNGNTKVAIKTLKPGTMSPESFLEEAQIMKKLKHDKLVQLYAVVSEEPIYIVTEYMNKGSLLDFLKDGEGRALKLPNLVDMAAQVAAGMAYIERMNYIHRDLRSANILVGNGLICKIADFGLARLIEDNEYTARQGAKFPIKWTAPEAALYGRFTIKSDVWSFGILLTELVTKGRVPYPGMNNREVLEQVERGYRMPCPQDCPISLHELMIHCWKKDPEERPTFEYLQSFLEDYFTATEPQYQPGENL
Excerpt: 69 and compound no. […] Since Fyn was not included in that panel, a custom panel was completed for Fyn kinase activity.

full-length Tau = full-length Tau (Homo sapiens (Human), UniProt P10636); experiment: Isothermal titration calorimetry, full-length Tau; type: binding
full-length Tau, sequence (P10636 other isoform, or with tags, fused parts or gaps): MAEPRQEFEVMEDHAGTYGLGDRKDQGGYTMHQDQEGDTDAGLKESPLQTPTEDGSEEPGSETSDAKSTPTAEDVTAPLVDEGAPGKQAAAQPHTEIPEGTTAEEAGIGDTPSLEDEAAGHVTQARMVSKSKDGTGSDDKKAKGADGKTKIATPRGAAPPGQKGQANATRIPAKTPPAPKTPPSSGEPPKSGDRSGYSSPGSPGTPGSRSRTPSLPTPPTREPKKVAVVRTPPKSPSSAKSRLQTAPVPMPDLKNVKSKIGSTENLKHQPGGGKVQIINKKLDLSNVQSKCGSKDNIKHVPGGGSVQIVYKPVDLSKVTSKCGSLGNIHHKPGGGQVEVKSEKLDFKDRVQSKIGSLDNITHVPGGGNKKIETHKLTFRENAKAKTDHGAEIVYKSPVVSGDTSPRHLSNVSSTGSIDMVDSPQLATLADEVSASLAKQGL
Excerpt: Human Fyn-SH3 domain with GST-tag at the N-terminus and a Strep-tag II ([…]) at the C-terminus (GST-Fyn-SH3-Strep) was cloned into pPR-IBA1 vector (IBA Lifesciences) (Cochran, et al. (2014) J. Biomol. Screen. 19, 1338-1349). Codon-optimized human 4R2N Tau for E. coli expression with a Strep-tag II at the C-terminus (His-Tau-Strep) was cloned into pET-28a(+) vector (Novagen). The constructs were transformed into E. coli BL-21(DE3) competent cells (Novagen). For GST-Fyn-SH3-Strep purification, a single colony was inoculated in Luria-Bertani (LB) broth at 37° C. overnight. 10 mL cell culture was added into 500 mL LB medium and cultured at 37° C. 0.5 mM Isopropyl β-D-1-thiogalactopyranoside (IPTG) was added into the culture when OD600 reached 0.7. Cells were further cultured at 25° C. for 4 hours and harvested. Cell pellet was resuspended in lysis buffer (20 mM Tris pH 7.9, 300 mM NaCl, 1 mM TCEP) with 1 tablet of EDTA-free protease inhibitors (ThermoFisher) and 1 mg/ml lysozyme. Cells were disrupted by sonication and debris was removed by centrifugation at 9500 rpm for 1 hour. Supernatant was loaded onto a glutathione-sepharose column (Cytiva). The column was washed in lysis buffer and protein eluted in lysis buffer containing 25 mM reduced glutathione. For His-Tau-Strep protein purification, cells were inoculated in LB broth medium and cultured at 37° C. overnight. A 10 mL overnight culture was added to 500 mL of auto-induction medium (Studier, F. W. (2005) Protein Expr Purif 41, 207-34) and cells were cultured at 37° C. for about 5 hours. The temperature was lowered to 18° C., and cells were cultured overnight. Cells were harvested and resuspended in lysis buffer with 20 mM imidazole, protease inhibitors, and lysozyme. Cells were disrupted by sonication and cell pellets were spun down at 9500 rpm for 1 hour. Supernatant was loaded onto Ni-NTA column (Cytiva) and the column was washed in lysis buffer with 20 mM imidazole. His-Tau-Strep protein was eluted in lysis buffer containing 400 mM imidazole. Both eluted GST-Fyn-SH3-Strep and His-Tau-Strep protein solutions were passed through G-25 desalting column (Cytiva) with lysis buffer and loaded onto high capacity Strep-Tactin column (IBA Lifesciences). The columns were washed in Buffer W (IBA Life sciences) and proteins were eluted in Buffer E (IBA life sciences). The eluted proteins were passed through G-25 desalting column again. […]
Purified full-length Tau and FynSH3 were dialyzed into 20 mM Tris and 150 mM NaCl, pH 8.0 with Slide-A-Lyzer G2 Dialysis Cassettes with 10K MWCO (ThermoFisher #87729). […] Protein concentrations were measured on a Nanodrop2000 (ThermoFisher) based on absorbance at 280 nm. […]

[1] = system: endogenous Tau-tubulin interaction; experiment: Tau-Tubulin PLA in HEK-293 cells; type: cell-based, human; conditions: 15 μM, 24 hours, untransfected HEK-293 cells
Method: Tau-Tubulin PLA: Untransfected HEK-293 cells were used to measure endogenous Tau-tubulin interaction. Cells were grown for 48 hours before applying 15 µM compound no. 69 for 24 hours. Cells were fixed and PLA was run as above except with Dako Tau (1:1000) and α-tubulin (1:2000) primary antibodies.

Tau-SrcSH3 interaction, sequence (P10636 other isoform, or with tags, fused parts or gaps): as above

SMILES: O=C(CN1CCOc2ccccc21)Nc1nnc(-c2ccccn2)[nH]1 [compound no. 69]
- Tau-SrcSH3 interaction, Tau-Flag PLA (Tau-SrcSH3 interaction): slightly but insignificantly inhibited; also recorded: does not inhibit Tau-SrcSH3 interaction
- Fyn kinase inhibition (Fyn kinase): did not inhibit Fyn
- ΔG, ITC with full-length Tau (full-length Tau; 25° C.): -6.7 kcal/mol
- ΔH, ITC with full-length Tau (full-length Tau; 25° C.): -1.5 kcal/mol
- Kd (full-length Tau; 25° C., read-out: Kd, ITC with full-length Tau): 11.9 µM
- n, ITC with full-length Tau (full-length Tau; one set of sites model): 0.9
- Tau-tubulin interaction, PLA [1]: did not inhibit Tau-tubulin binding; also recorded: does not inhibit Tau-tubulin interaction
